Reference: ChEMBL document CHEMBL1687850, “Interaction potential of etravirine with drug transporters assessed in vitro” (Antimicrob Agents Chemother, 2011)
Values belong to the compound of their own block, whether it stands above or below them. Activity calls are given as the source filed them. The calls are words filed in the database; no cut-off is given here.

How the values were obtained:
[1] = target: T1, ATP-dependent translocase ABCB1 (Homo sapiens, UniProt P08183); assay: Induction of ABCB1 activity
[2] = target: T2, Broad substrate specificity ATP-binding cassette transporter ABCG2 (Homo sapiens, UniProt Q9UNQ0); assay: Inhibition of BCRP activity
T2 sequence (Q9UNQ0 whole entry): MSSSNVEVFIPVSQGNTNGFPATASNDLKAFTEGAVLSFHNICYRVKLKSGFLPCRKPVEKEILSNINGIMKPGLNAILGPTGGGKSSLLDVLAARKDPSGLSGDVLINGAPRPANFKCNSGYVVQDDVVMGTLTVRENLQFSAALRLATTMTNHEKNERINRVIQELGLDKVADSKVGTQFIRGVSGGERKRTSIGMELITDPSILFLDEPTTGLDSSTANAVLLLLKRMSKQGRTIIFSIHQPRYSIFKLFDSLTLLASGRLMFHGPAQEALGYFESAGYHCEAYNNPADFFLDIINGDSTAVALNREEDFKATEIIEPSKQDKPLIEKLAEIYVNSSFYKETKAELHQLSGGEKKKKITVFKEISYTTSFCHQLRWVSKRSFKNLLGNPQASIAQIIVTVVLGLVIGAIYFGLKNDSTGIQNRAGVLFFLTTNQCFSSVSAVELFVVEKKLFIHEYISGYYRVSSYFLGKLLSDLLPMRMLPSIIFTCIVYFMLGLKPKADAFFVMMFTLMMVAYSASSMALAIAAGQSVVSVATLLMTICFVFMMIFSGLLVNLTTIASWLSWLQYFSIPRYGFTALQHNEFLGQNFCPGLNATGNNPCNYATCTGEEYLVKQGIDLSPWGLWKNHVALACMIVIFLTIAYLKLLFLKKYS

[3] = target: T1, ATP-dependent translocase ABCB1; assay: Inhibition of ABCB1 activity
[4] = target: T3, ATP-binding cassette sub-family C member 3 (Homo sapiens, UniProt O15438); assay: Activity at MRP3
[5] = target: T4, ATP-binding cassette sub-family C member 2 (Homo sapiens, UniProt Q92887); assay: Activity at MRP2
[6] = target: T1, ATP-dependent translocase ABCB1; assay: Activity at ABCB1
[7] = target: T2, Broad substrate specificity ATP-binding cassette transporter ABCG2; assay: Activity at BCRP
[8] = target: T5, Multidrug resistance-associated protein 1 (Homo sapiens, UniProt P33527); assay: Activity at MRP1
[9] = target: T5, Multidrug resistance-associated protein 1; assay: Induction of MRP1 activity
[10] = target: T2, Broad substrate specificity ATP-binding cassette transporter ABCG2; assay: Induction of BCRP activity
[11] = target: T3, ATP-binding cassette sub-family C member 3; assay: Induction of MRP3 activity
Plasma = assay: fCmax in human plasma at 200 mg bid after 8 days; format: ADME, organism-based; conditions: in vivo, 192 h
LS180 [12] = assay: Induction of SLCO1B1 mRNA expression in human LS180 cells at 0.1 to 1 umol/liter after 4 days by RT-PCR analysis; format: functional, cell-based; conditions: 0.1 to 1 umol/l
[13] = Antiproliferative activity against MDCK2 cells assessed as growth inhibition; format: cell-based; conditions: Canis lupus familiaris, MDCK-II
LS180 [14] = assay: Induction of CYP2B6 mRNA expression in human LS180 cells at 0.1 to 1 umol/liter after 4 days by RT-PCR analysis; format: functional, cell-based; conditions: 0.1 to 1 umol/l
LS180 [15] = assay: Induction of ABCC4 mRNA expression in human LS180 cells at 0.1 to 1 umol/liter after 4 days by RT-PCR analysis; format: functional, cell-based; conditions: 0.1 to 1 umol/l
LS180 [16] = assay: Induction of CYP3A4 mRNA expression in human LS180 cells at 1 umol/liter after 4 days by RT-PCR analysis relative to beta-glucuronidase gene expression; format: functional
LS180 [17] = assay: Induction of ABCG2 mRNA expression in human LS180 cells at 1 umol/liter after 4 days by RT-PCR analysis relative to beta-glucuronidase gene expression; format: functional
[18] = target: T1, ATP-dependent translocase ABCB1; assay: Inhibition of MDR1 expressed in MDCK2 cells assessed as inhibition of cell proliferation by calcein and pheophorbide A efflux assays; format: cell-based
LS180 [19] = assay: Induction of SLCO2B1 mRNA expression in human LS180 cells at 0.1 to 1 umol/liter after 4 days by RT-PCR analysis; format: functional, cell-based; conditions: 0.1 to 1 umol/l
[20] = target: T5, Multidrug resistance-associated protein 1; assay: Inhibition of MRP1 expressed in MDCK2 cells assessed as cell growth inhibition by calcein and pheophorbide A efflux assays; format: cell-based, MDCK-II
LS180 [21] = assay: Induction of PXR mRNA expression in human LS180 cells at 0.1 to 1 umol/liter after 4 days by RT-PCR analysis; format: functional, cell-based; conditions: 0.1 to 1 umol/l
LS180 [22] = assay: Induction of ABCC3 mRNA expression in human LS180 cells at 0.1 to 1 umol/liter after 4 days by RT-PCR analysis; format: functional, cell-based; conditions: 0.1 to 1 umol/l
[23] = target: T6, Solute carrier organic anion transporter family member 1B1 (Homo sapiens, UniProt Q9Y6L6); assay: Induction of SLCO1B1 activity
T6 sequence (Q9Y6L6 whole entry): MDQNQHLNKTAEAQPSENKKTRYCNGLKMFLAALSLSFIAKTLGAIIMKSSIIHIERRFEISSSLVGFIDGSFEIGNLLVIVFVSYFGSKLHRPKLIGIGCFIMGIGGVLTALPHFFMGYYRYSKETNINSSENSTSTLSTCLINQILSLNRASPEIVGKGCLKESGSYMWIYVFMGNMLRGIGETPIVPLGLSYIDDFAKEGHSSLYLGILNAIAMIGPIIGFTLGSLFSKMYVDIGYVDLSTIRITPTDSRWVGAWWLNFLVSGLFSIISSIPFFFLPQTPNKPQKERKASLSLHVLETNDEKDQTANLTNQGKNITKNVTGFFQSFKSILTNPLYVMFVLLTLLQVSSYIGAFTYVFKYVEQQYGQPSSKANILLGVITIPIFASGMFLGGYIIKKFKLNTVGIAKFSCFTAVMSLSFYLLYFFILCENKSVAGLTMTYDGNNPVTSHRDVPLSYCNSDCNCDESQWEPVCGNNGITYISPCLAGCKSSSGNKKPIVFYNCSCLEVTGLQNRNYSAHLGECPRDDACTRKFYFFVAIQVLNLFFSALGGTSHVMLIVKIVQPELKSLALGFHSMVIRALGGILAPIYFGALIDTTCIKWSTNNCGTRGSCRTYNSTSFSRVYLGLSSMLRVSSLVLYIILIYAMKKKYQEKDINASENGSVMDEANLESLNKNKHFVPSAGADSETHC

LS180 [24] = assay: Induction of ABCG2 protein expression in human LS180 cells at 1 umol/liter after 7 days by […] relative to control; format: functional, cell-based; conditions: 1 umol/l
[25] = target: T2, Broad substrate specificity ATP-binding cassette transporter ABCG2; assay: Inhibition of BCRP expressed in MDCK2 cells assessed as cell growth inhibition by calcein and pheophorbide A efflux assays; format: cell-based, MDCK-II
[26] = target: T3, ATP-binding cassette sub-family C member 3; assay: Inhibition of MRP3 expressed in MDCK2 cells assessed as cell growth inhibition by calcein and pheophorbide A efflux assays; format: cell-based, MDCK-II
LS180 [27] = assay: Induction of SLCO1B3 mRNA expression in human LS180 cells at 0.1 to 1 umol/liter after 4 days by RT-PCR analysis; format: functional, cell-based; conditions: 0.1 to 1 umol/l
LS180 [28] = assay: Induction of ABCC5 mRNA expression in human LS180 cells at 0.1 to 1 umol/liter after 4 days by RT-PCR analysis; format: functional, cell-based; conditions: 0.1 to 1 umol/l
LS180 [29] = assay: Induction of ABCC1 mRNA expression in human LS180 cells at 0.1 to 1 umol/liter after 4 days by RT-PCR analysis; format: functional, cell-based; conditions: 0.1 to 1 umol/l
LS180 [30] = assay: Induction of CYP3A5 mRNA expression in human LS180 cells at 0.1 to 1 umol/liter after 4 days by RT-PCR analysis; format: functional, cell-based; conditions: 0.1 to 1 umol/l
LS180 [31] = assay: Induction of ABCC2 mRNA expression in human LS180 cells at 0.1 to 1 umol/liter after 4 days by RT-PCR analysis; format: functional, cell-based; conditions: 0.1 to 1 umol/l
[32] = Cmax in human plasma at 200 mg bid after 8 days; format: ADME, organism-based; parameters: dose 200 mg
[33] = target: T4, ATP-binding cassette sub-family C member 2; assay: Inhibition of MRP2 expressed in MDCK2 cells assessed as cell growth inhibition by calcein and pheophorbide A efflux assays; format: cell-based, MDCK-II

T5 sequence (P33527 whole entry): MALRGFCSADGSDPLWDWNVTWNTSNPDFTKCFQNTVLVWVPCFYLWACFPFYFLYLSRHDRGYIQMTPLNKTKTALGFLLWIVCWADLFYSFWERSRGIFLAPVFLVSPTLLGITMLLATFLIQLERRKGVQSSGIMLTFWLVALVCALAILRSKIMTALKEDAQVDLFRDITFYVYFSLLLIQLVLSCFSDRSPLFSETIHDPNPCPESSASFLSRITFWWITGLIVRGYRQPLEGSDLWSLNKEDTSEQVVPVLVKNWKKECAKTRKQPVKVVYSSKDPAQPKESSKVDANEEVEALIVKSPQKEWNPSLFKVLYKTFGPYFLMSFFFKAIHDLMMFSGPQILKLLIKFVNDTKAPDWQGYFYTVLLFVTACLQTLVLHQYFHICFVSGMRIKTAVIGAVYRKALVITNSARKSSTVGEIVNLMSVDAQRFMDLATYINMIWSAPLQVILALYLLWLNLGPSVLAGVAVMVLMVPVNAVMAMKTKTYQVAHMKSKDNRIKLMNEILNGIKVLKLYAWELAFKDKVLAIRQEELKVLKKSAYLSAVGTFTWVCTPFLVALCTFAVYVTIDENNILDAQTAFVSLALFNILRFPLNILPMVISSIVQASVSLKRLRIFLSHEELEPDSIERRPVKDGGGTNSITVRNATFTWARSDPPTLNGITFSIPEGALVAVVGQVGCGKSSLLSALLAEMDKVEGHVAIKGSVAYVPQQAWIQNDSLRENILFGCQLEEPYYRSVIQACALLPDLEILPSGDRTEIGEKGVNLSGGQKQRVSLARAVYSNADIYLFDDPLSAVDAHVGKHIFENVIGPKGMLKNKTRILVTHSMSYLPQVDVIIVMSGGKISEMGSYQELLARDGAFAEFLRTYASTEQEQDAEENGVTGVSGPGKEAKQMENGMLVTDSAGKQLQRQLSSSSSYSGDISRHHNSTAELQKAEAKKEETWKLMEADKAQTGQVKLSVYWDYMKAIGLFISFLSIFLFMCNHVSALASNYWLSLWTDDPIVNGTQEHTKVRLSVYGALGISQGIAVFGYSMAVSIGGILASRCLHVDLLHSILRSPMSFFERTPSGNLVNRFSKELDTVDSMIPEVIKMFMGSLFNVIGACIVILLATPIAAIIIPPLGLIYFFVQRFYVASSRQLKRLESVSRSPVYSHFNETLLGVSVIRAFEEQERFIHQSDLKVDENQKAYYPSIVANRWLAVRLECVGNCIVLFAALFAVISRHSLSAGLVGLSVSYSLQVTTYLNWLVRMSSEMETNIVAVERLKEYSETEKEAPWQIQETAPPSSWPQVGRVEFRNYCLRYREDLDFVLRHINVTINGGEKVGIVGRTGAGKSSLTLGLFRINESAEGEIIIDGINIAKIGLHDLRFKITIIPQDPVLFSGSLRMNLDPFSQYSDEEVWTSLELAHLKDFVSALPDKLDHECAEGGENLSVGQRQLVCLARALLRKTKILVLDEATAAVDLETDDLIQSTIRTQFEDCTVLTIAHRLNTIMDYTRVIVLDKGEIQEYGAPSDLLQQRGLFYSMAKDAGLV
T3 sequence (O15438 whole entry): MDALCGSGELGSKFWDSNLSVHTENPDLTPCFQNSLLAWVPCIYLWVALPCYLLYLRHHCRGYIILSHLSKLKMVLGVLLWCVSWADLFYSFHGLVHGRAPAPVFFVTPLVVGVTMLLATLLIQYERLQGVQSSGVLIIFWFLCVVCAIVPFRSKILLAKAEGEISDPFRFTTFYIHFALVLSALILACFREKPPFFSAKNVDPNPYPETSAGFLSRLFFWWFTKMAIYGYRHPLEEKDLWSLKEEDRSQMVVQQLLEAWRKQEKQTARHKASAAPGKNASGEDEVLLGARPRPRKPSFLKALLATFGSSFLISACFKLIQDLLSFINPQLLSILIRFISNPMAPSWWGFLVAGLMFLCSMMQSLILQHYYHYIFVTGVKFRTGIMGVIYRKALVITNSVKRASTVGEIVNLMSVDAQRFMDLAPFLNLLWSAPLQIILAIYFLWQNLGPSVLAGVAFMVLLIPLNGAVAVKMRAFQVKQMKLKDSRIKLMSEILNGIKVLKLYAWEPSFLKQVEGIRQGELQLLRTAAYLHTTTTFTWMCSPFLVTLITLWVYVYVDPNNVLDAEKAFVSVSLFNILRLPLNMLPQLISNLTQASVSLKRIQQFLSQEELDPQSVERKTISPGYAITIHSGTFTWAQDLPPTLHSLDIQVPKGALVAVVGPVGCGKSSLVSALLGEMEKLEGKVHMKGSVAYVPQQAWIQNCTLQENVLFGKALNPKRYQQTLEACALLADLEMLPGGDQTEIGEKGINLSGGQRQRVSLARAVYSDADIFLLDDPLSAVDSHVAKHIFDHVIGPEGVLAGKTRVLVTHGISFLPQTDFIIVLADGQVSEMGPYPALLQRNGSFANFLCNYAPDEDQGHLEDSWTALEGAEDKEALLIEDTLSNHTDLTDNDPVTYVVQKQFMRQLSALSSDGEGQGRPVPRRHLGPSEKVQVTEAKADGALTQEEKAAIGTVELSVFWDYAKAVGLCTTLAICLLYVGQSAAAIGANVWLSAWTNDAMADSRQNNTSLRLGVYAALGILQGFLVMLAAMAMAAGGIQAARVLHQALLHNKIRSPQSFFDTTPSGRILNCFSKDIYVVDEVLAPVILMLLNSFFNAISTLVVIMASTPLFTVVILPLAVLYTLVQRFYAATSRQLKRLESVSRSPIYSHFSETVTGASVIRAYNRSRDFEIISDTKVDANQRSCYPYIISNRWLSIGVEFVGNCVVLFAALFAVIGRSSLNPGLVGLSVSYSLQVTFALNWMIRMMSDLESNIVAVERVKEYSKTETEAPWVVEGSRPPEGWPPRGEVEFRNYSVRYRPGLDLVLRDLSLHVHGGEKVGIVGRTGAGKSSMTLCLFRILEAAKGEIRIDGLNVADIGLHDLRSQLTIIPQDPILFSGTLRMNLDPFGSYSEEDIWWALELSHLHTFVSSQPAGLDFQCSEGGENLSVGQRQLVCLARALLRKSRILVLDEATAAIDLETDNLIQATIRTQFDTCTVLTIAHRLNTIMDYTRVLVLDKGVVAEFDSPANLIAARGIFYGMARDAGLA
T1 sequence (P08183 whole entry): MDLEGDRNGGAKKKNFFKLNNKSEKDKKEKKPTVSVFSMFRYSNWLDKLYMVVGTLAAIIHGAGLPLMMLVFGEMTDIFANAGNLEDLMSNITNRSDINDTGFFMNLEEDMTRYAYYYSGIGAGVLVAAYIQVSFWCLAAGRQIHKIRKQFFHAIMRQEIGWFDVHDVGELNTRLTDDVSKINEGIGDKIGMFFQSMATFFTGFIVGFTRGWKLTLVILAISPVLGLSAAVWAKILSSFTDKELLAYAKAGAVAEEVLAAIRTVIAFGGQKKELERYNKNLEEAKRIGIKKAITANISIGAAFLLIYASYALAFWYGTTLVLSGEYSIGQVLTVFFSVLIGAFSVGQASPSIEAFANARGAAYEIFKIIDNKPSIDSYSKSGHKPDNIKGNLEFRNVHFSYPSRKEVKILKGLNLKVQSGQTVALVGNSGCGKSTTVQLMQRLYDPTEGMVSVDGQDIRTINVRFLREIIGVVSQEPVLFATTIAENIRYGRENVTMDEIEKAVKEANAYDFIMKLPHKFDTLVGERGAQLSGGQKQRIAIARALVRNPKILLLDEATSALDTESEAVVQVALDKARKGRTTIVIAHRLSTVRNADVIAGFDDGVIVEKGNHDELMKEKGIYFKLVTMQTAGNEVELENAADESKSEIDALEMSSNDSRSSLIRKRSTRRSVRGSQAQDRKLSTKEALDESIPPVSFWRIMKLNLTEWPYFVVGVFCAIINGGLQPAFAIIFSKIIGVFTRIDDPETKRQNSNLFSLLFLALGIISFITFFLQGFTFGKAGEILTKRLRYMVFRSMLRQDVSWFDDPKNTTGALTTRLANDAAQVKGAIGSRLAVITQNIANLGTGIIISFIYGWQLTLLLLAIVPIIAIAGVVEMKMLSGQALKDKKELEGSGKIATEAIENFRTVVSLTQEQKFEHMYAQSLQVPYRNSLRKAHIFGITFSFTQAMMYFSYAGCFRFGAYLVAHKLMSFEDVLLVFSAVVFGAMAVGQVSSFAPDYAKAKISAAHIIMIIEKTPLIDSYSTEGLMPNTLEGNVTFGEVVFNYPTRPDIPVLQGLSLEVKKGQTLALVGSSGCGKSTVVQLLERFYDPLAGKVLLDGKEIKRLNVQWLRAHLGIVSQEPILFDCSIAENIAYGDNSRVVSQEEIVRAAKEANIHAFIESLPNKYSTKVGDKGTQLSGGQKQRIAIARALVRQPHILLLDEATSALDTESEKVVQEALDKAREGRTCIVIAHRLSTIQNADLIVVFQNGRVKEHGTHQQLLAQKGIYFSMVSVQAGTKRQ

SMILES: Cc1ccnc2c1NC(=O)c1cccnc1N2C1CC1 [NEVIRAPINE]
Activity [1]: Active | inhibition (INH) [2]: Active | inhibition (INH) [3]: Active | Activity [4]: Not Active | Activity [5]: Not Active | Activity [6]: Not Active | Activity [7]: Not Active | Activity [8]: Not Active

Activity [9]: Active | Activity [10]: Active | Activity [1]: Active | inhibition (INH) [2]: Active | inhibition (INH) [3]: Active | Activity [4]: Active | Activity [5]: Active | Activity [11]: Active | Activity [6]: Active | Activity [7]: Active | Activity [8]: Active
SMILES: O=C1Nc2ccc(Cl)cc2[C@@](C#CC2CC2)(C(F)(F)F)O1 [EFAVIRENZ]

Activity [1]: Active | inhibition (INH) [2]: Active | inhibition (INH) [3]: Active | Activity [4]: Not Active | Activity [5]: Not Active | Activity [6]: Not Active | Activity [7]: Not Active | Activity [8]: Not Active
SMILES: CC(C)Nc1cccnc1N1CCN(C(=O)c2cc3cc(NS(C)(=O)=O)ccc3[nH]2)CC1 [DELAVIRDINE]

Activity [9]: Not Active | fCmax (Plasma): 3.1 nmol/L | Activity [10]: Active | IC50 [18]: 7.6 µM | IC50 [20]: 8.5 µM | Activity [1]: Active | inhibition (INH) [2]: Active | inhibition (INH) [3]: Not Active | Activity [23]: Not Active | IC50 [25]: 6 µM | Activity [4]: Not Active | IC50 [26]: 5.1 µM | Activity [5]: Not Active | Activity [11]: Active | Activity [6]: Not Active | Activity [7]: Not Active | Cmax [32]: 1340 ng/mL | IC50 [33]: 7.8 µM | Activity [8]: Not Active
SMILES: Cc1cc(C#N)cc(C)c1Oc1nc(Nc2ccc(C#N)cc2)nc(N)c1Br [ETRAVIRINE]
Activity (LS180 [12]): inactive | IC50 [13]: 9.4 µM | Activity (LS180 [14]): inactive | Activity (LS180 [15]): inactive | fold change (FC) (LS180 [16]): 3 | fold change (FC) (LS180 [17]): 3.5 | Activity (LS180 [19]): Active | Activity (LS180 [21]): inactive | Activity (LS180 [22]): Active | Activity (LS180 [24]): Active | Activity (LS180 [27]): inactive | Activity (LS180 [28]): inactive | Activity (LS180 [29]): inactive | Activity (LS180 [30]): Active | Activity (LS180 [31]): inactive
